In ChEMBL document CHEMBL3991601, “The target landscape of clinical kinase drugs” (Science, 2017):
Where a name gives a salt, the structure may show the parent alone. The source made the active and inactive calls.

Columns and labels:
[1] = biological target: T1, Serine/threonine-protein kinase ICK (Homo sapiens, UniProt Q9UPZ9)
T1 sequence (Q9UPZ9 whole entry): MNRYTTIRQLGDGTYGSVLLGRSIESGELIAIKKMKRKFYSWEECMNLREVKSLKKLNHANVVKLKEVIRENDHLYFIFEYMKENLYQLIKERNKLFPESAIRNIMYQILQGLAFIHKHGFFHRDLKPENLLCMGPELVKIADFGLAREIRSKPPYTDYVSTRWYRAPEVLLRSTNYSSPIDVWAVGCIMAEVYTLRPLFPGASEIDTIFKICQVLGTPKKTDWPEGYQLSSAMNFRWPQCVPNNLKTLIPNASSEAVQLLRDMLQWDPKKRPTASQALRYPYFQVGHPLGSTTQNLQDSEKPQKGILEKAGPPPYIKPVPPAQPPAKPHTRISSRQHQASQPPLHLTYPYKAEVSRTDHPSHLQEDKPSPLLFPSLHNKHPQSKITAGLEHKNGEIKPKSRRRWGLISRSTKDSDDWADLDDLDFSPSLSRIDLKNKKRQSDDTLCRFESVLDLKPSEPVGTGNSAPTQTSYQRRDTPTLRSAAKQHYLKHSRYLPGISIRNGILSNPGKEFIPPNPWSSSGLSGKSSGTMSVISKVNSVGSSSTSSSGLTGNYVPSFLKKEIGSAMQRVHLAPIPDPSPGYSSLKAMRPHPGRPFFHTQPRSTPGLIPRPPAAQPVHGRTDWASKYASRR

[2] = biological target: T2, ATP-dependent RNA helicase DDX42 (Homo sapiens, UniProt Q86XP3)
T2 sequence (Q86XP3 whole entry): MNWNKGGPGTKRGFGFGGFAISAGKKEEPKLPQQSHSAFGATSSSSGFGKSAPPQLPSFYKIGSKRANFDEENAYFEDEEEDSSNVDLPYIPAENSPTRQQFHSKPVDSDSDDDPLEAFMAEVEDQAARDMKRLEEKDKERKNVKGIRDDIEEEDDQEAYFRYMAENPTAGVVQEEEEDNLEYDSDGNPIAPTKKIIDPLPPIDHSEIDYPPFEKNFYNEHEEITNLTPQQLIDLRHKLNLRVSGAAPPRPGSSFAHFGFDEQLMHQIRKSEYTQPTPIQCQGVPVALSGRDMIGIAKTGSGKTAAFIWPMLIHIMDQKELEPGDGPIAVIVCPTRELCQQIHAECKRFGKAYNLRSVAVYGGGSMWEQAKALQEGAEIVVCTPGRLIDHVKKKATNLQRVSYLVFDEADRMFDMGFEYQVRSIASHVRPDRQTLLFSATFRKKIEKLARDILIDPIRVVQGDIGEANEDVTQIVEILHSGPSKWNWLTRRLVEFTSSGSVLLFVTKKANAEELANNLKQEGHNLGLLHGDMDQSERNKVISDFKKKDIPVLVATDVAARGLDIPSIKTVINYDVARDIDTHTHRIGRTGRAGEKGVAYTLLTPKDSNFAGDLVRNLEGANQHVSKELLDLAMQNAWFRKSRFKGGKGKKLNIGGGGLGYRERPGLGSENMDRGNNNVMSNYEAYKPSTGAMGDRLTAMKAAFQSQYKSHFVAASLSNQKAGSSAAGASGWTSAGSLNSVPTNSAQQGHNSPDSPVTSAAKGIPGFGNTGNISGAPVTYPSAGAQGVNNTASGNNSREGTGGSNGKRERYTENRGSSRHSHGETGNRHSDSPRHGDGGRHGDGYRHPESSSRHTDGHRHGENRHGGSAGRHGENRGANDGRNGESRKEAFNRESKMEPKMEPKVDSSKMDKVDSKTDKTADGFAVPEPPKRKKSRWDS

[3] = biological target: T3, RNA cytidine acetyltransferase (Homo sapiens, UniProt Q9H0A0)
T3 sequence (Q9H0A0 whole entry): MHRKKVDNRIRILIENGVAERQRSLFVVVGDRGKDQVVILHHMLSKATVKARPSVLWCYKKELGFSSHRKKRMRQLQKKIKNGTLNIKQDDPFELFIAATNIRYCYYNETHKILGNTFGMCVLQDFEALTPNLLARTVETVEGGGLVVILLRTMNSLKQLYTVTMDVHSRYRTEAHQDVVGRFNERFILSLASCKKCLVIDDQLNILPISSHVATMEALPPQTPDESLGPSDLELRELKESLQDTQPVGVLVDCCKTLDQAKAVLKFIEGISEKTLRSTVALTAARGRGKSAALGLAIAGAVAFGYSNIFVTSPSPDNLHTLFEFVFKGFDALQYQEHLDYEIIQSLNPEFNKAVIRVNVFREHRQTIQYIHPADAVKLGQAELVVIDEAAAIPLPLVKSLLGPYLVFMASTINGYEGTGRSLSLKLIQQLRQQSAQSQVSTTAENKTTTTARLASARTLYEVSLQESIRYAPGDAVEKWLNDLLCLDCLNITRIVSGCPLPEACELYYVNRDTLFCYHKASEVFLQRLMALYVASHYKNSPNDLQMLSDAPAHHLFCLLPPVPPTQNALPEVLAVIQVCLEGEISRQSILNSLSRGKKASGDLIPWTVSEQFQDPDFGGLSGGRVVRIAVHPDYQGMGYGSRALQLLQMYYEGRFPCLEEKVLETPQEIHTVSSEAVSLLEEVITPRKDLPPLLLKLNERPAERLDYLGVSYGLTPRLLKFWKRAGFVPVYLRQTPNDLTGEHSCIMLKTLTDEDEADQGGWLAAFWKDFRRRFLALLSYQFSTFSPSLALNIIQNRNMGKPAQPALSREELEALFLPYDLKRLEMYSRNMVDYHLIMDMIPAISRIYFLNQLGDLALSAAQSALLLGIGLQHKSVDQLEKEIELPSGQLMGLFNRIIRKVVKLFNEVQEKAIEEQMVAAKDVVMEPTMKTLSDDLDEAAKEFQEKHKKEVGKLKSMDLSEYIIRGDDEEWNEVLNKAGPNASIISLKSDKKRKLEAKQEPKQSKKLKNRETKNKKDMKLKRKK

[4] = biological target: Cyclin-dependent kinase 3 (Homo sapiens, UniProt Q00526)
Further: in the data inactive means no Kd found up to 30 µM.

Chain of Cyclin-dependent kinase 3 (Q00526 whole entry): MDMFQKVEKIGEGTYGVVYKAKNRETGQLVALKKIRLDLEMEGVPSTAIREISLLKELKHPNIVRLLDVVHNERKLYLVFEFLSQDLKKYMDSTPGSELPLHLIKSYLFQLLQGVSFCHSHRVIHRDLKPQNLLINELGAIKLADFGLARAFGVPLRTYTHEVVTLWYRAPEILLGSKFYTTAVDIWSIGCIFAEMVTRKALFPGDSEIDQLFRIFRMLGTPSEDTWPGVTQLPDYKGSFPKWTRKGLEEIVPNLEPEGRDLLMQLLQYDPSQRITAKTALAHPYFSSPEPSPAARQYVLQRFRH

Structure (SMILES) | Kd [1] | Kd [2] | Kd [3] | Kd [4]
COc1cc([C@@H]2c3cc4c(cc3[C@H](O)[C@H]3COC(=O)[C@@H]23)OCO4)cc(OC)c1OC [AXL-1717] | > 30 µM (inactive) | > 30 µM (inactive) | > 30 µM (inactive) | > 30 µM (inactive)
Cn1cnc2c(F)c(Nc3ccc(Br)cc3F)c(C(=O)NOCCO)cc21 [BINIMETINIB] | > 30 µM (inactive) | > 30 µM (inactive) | > 30 µM (inactive) | > 30 µM (inactive)
Cc1cc(Nc2ncc(Cl)c(Nc3ccccc3S(=O)(=O)C(C)C)n2)c(OC(C)C)cc1C1CCNCC1 [CERITINIB] | > 30 µM (inactive) | > 30 µM (inactive) | > 30 µM (inactive) | > 30 µM (inactive)
COc1c(OCCCN2CCOCC2)ccc2c1N=C(NC(=O)c1cnc(N)nc1)N1CCN=C21 [COPANLISIB] | > 30 µM (inactive) | > 30 µM (inactive) | > 30 µM (inactive) | > 30 µM (inactive)
COCC(=O)NC/C=C/c1ccc2ncnc(Nc3ccc(Oc4ccc(C)nc4)c(C)c3)c2c1 [CP-724714] | > 30 µM (inactive) | > 30 µM (inactive) | > 30 µM (inactive) | > 30 µM (inactive)
CCS(=O)(=O)N1CCN(c2ccc(Nc3ncc(C(N)=O)c(NC4CC4)n3)cc2)CC1 [Cerdulatinib Hydrochloride] | > 30 µM (inactive) | > 30 µM (inactive) | > 30 µM (inactive) | > 30 µM (inactive)
O=C(Nc1nc2cccc(-c3ccc(CN4CCS(=O)(=O)CC4)cc3)n2n1)C1CC1 [FILGOTINIB] | > 30 µM (inactive) | > 30 µM (inactive) | > 30 µM (inactive) | > 30 µM (inactive)
Cc1cccc(-c2nn3c(c2-c2ccnc4ccc(C(N)=O)cc24)CCC3)n1 [GALUNISERTIB] | > 30 µM (inactive) | > 30 µM (inactive) | > 30 µM (inactive) | > 30 µM (inactive)
O=C(Nc1cc(C(F)(F)F)cc(C(F)(F)F)c1)c1cc(Cl)ccc1O [IMD-0354] | > 30 µM (inactive) | > 30 µM (inactive) | > 30 µM (inactive) | > 30 µM (inactive)
CNC(=O)c1cccc2cc(Oc3ccnc4cc(OCC5(N)CC5)c(OC)cc34)ccc12 [LUCITANIB] | > 30 µM (inactive) | > 30 µM (inactive) | > 30 µM (inactive) | > 30 µM (inactive)
CNC(=O)c1nn(C)c2c1C(C)(C)Cc1cnc(Nc3ccc(N4CCN(C)CC4)cc3)nc1-2 [MILCICLIB] | 0.863 µM (active) | > 30 µM (inactive) | > 30 µM (inactive) | > 30 µM (inactive)
NC1(c2ccc(-c3nc4ccn5c(=O)[nH]nc5c4cc3-c3ccccc3)cc2)CCC1 [MK-2206] | > 30 µM (inactive) | > 30 µM (inactive) | > 30 µM (inactive) | > 30 µM (inactive)
Cn1cc(-c2cnc3ccc4ccc(CS(=O)(=O)NCc5ccccn5)cc4c(=O)c3c2)cn1 [MK-8033] | > 30 µM (inactive) | > 30 µM (inactive) | > 30 µM (inactive) | > 30 µM (inactive)
CCOc1cc2ncc(C#N)c(Nc3ccc(F)c(Cl)c3)c2cc1NC(=O)/C=C/CN(C)C [PELITINIB] | > 30 µM (inactive) | > 30 µM (inactive) | > 30 µM (inactive) | > 30 µM (inactive)
CCCCCCCCCCCCCCCCCCOP(=O)([O-])OC1CC[N+](C)(C)CC1 [PERIFOSINE] | > 30 µM (inactive) | > 30 µM (inactive) | > 30 µM (inactive) | > 30 µM (inactive)
Cc1nc(Nc2n[nH]c3c2CN(C(=O)N[C@H](CN(C)C)c2ccccc2)C3(C)C)c2sccc2n1 [PF-03758309] | 0.237 µM | > 30 µM (inactive) | > 30 µM (inactive) | 63.6 µM (active)
CC(=O)NCC(=O)N1[C@@H]2CC[C@H]1c1ccc(Nc3ncc(C(F)(F)F)c(NC4CCC4)n3)cc12 [PF-03814735] | > 30 µM (inactive) | > 30 µM (inactive) | > 30 µM (inactive) | 1.53 µM (active)
Cc1cnc(NC(=O)Nc2cc(Br)c(C)cc2OC[C@@H]2CNCCO2)cn1 [RABUSERTIB] | > 30 µM (inactive) | > 30 µM (inactive) | > 30 µM (inactive) | > 30 µM (inactive)
CNC(=O)c1cc(Oc2ccc(NC(=O)Nc3cc(C(C)(C)C)nn3-c3ccc4ncccc4c3)c(F)c2)ccn1 [REBASTINIB] | > 30 µM (inactive) | > 30 µM (inactive) | > 30 µM (inactive) | 2.65 µM (active)
CO[C@H]1C[C@@H]2CC[C@@H](C)[C@@](O)(O2)C(=O)C(=O)N2CCCC[C@H]2C(=O)O[C@H]([C@H](C)C[C@@H]2CC[C@@H](OP(C)(C)=O)[C@H](OC)C2)CC(=O)[C@H](C)/C=C(\C)[C@@H](O)[C@@H](OC)C(=O)[C@H](C)C[C@H](C)/C=C/C=C/C=C/1C [RIDAFOROLIMUS] | > 30 µM (inactive) | > 30 µM (inactive) | > 30 µM (inactive) | > 30 µM (inactive)
O=c1[nH]ccc2cc(OC3CCNCC3)ccc12 [SAR-407899 FREE BASE] | > 30 µM (inactive) | > 30 µM (inactive) | > 30 µM (inactive) | > 30 µM (inactive)

More lines, now with the values ahead:

Kd [1] | Kd [2] | Kd [3] | Kd [4] | Structure (SMILES)
> 30 µM (inactive) | > 30 µM (inactive) | > 30 µM (inactive) | > 30 µM (inactive) | Cc1cc(C(=O)NOCCO)c(Nc2ccc(I)cc2F)n(C)c1=O [AZD-8330]
> 30 µM (inactive) | > 30 µM (inactive) | > 30 µM (inactive) | > 30 µM (inactive) | CCn1c(C(=O)N(C2CC2)C2CC2)cc2c3c(ncn3C)c(Nc3cc(C)n(C)n3)nc21 [BMS-911543]
> 30 µM (inactive) | > 30 µM (inactive) | > 30 µM (inactive) | > 30 µM (inactive) | COc1cc2ncnc(Oc3cccc(NC(=O)Nc4cc(C(C)(C)C(F)(F)F)on4)c3)c2cc1OC [CEP-32496]
> 30 µM (inactive) | > 30 µM (inactive) | > 30 µM (inactive) | > 30 µM (inactive) | C#Cc1cccc(Nc2ncnc3cc(OC)c(OCCCCCCC(=O)NO)cc23)c1 [CUDC-101]
> 30 µM (inactive) | > 30 µM (inactive) | > 30 µM (inactive) | > 30 µM (inactive) | CCn1cc(-c2ccnc3[nH]c(-c4cccc(CN(C)C)c4)cc23)c(-c2ccc(NC(=O)N(C)C)cc2)n1 [GSK-1070916]
